Laboratory results from patent US10925856B2, “Methods and compositions involving bucindolol for the treatment of atrial fibrillation” (priority 2018, dated 2021).
Marks after values point to notes of the source that are not given here.

How the values were obtained:
[1] = Systolic blood pressure and heart rate by scheduled visit; format: in vivo, human
Text: Block is defined as the first of any of the following: 1) 3rd degree heart block (complete heart block); 2) any 2nd degree heart block with the presence of symptoms attributable to, and temporally correlated with the occurrence of heart block which include any of the following: Near-fainting or fainting (syncope)/Dizziness; Weakness or Fatigue; Shortness of breath; Chest pain; or 3) 2nd or 3rd degree heart block requiring implantation of a permanent pacemaker (with or without defibrillator). • Data source: • CVEVENT and AE eCRF forms. • Overall incidence and severity of treatment-emergent AEs/SAEs over time during the Total Study Period. Also events associated with device implantation. […] The AEs of special interest will be tabulated according to the following characteristics. • Development of treatment-emergent neoplastic conditions. • Progression or worsening of pre-study neoplastic conditions. • Progression or worsening of treatment-emergent neoplastic conditions. • Data source: • AE, NEOPLHX and NEOPLAS eCRF forms. • Clinical Chemistry and Hematology. • Visit collection: screen, start of follow-up Week 0 (protocol versions 1 and 2), Week 4 (protocol versions 3 and 4), Week 12 (protocol versions 3 and 4), Week 24, every 24 weeks during extension, end of treatment and end of study. […] Randomization Visit measurement prior to first dose will serve as the baseline. Will be analyzed at Week 0, 4, 12 and 24 visits as well as end of treatment and end of study. • Change from baseline to each analysis visit will be calculated and analyzed with descriptive statistics. • The numbers and percentages of patients with QTc increase from baseline exceeding 60 ms at any time point during the study. • Data source: • ECG eCRF form. • Vital signs and weight (data source: VITALS eCRF form). • Measured at every in-clinic visit. Randomization Visit measurement prior to first dose will serve as the baseline. Will be analyzed at Week 0, 4, 12 and 24 visits as well as end of treatment and end of study. • Change from baseline to each analysis visit will be calculated and analyzed with descriptive statistics. • Data source: • VITALS eCRF form. • Proportion of patients attaining target study drug dose during the Drug Titration Period. Will be calculated for all patients, those receiving β-blocker therapy prior to randomization and those not previously receiving β-blocker therapy. • Data Sources: • VISREC and DRUGLOG eCRF forms.

plasma norepinephrine = assay: Plasma norepinephrine (HPLC with electrochemical detection); settings: for Norepinephrine, ΔWeek 12 Mean ± SEM / Norepinephrine, ΔWeek 12 Median / Norepinephrine, ΔWeek 24 Mean ± SEM / Norepinephrine, ΔWeek 24 Median: change from baseline
[2] = Europe excluding Hungary (n = 48)

CC(C)(Cc1c[nH]c2ccccc12)NCC(O)COc1ccccc1C#N (centres unmarked) [bucindolol, 2-(3-(1-(1H-indol-3-yl)-2-methylpropan-2-ylamino)-2-hydroxypropoxy)benzonitrile]
Systolic Blood Pressure, Baseline Mean ± SEM ([1]; Baseline): 124.7 ± 1.3 mmHg
Heart Rate, Baseline Mean ± SEM ([1]; Baseline, by ECG): 76.5 ± 1.5 bpm
Systolic Blood Pressure, Mean ± SEM ([1]; Week 4 Change from Baseline): −0.3 ± 1.5 mmHg
Heart Rate, Mean ± SEM ([1]; Week 4 Change from Baseline, by ECG): 0.1 ± 1.6 bpm
Systolic Blood Pressure, Mean ± SEM ([1]; Week 12 Change from Baseline): −0.5 ± 1.8 mmHg
Heart Rate, Mean ± SEM ([1]; Week 12 Change from Baseline, by ECG): −1.5 ± 1.8 bpm
Systolic Blood Pressure, Mean ± SEM ([1]; Week 24 Change from Baseline): −1.1 ± 1.5 mmHg
Heart Rate, Mean ± SEM ([1]; Week 24 Change from Baseline, by ECG): 0.1 ± 2.3 bpm
Plasma norepinephrine, Week 4 Mean (plasma norepinephrine; Canada): 583 pg/mL
Plasma norepinephrine, Week 4 Median (plasma norepinephrine; Canada): 551 pg/mL
Plasma norepinephrine, change from baseline to Week 4, Mean ±SEM (plasma norepinephrine; Canada): -59 pg/mL
Plasma norepinephrine, change from baseline to Week 4, Median (plasma norepinephrine; Canada): -1 pg/mL
Norepinephrine, Baseline Mean ± SD (plasma norepinephrine; Canada (n = 59)): 642 ± 341 pg/mL
Norepinephrine, Baseline Median (plasma norepinephrine; Canada (n = 59)): 522 pg/mL
Norepinephrine, Week 12 Mean ± SD (plasma norepinephrine; Canada (n = 59)): 528 ± 252 pg/mL
Norepinephrine, Week 12 Median (plasma norepinephrine; Canada (n = 59)): 484 pg/mL
Norepinephrine, Week 24 Mean ± SD (plasma norepinephrine; Canada (n = 59)): 623 ± 276 pg/mL
Norepinephrine, Week 24 Median (plasma norepinephrine; Canada (n = 59)): 564 pg/mL
Change in NE at Week 4, median (Q1, Q3) (plasma norepinephrine; Entire Cohort): −101 (−241, 43)* pg/ml
Plasma norepinephrine, Week 4 Mean (plasma norepinephrine; Entire Cohort): 563 pg/mL
Plasma norepinephrine, Week 4 Median (plasma norepinephrine; Entire Cohort): 500 pg/mL
Plasma norepinephrine, change from baseline to Week 4, Mean ±SEM (plasma norepinephrine; Entire Cohort): -124 ± 26 pg/mL
Plasma norepinephrine, change from baseline to Week 4, Median (plasma norepinephrine; Entire Cohort): -101 pg/mL
Norepinephrine, Baseline Mean ± SD (plasma norepinephrine; Entire Cohort (n = 267)): 682 ± 349 pg/mL
Norepinephrine, Baseline Median (plasma norepinephrine; Entire Cohort (n = 267)): 607 pg/mL
Norepinephrine, Week 12 Mean ± SD (plasma norepinephrine; Entire Cohort (n = 267)): 570 ± 275 pg/mL
Norepinephrine, Week 12 Median (plasma norepinephrine; Entire Cohort (n = 267)): 520 pg/mL
Norepinephrine, Week 24 Mean ± SD (plasma norepinephrine; Entire Cohort (n = 267)): 631 ± 329 pg/mL
Norepinephrine, Week 24 Median (plasma norepinephrine; Entire Cohort (n = 267)): 545 pg/mL
Plasma norepinephrine, change from baseline to Week 4, Mean ±SEM (plasma norepinephrine; Entire Cohort, listed as Buc): -124 pg/mL
Plasma norepinephrine, Week 4 Mean (plasma norepinephrine; Europe excluding Hungary): 604 pg/mL
Plasma norepinephrine, Week 4 Median (plasma norepinephrine; Europe excluding Hungary): 540 pg/mL
Plasma norepinephrine, change from baseline to Week 4, Mean ±SEM (plasma norepinephrine; Europe excluding Hungary): -126 pg/mL
Plasma norepinephrine, change from baseline to Week 4, Median (plasma norepinephrine; Europe excluding Hungary): -129 pg/mL
Norepinephrine, Baseline Mean ± SD (plasma norepinephrine; [2]): 753 ± 375 pg/mL
Norepinephrine, Baseline Median (plasma norepinephrine; [2]): 691 pg/mL
Norepinephrine, Week 12 Mean ± SD (plasma norepinephrine; [2]): 683 ± 318 pg/mL
Norepinephrine, Week 12 Median (plasma norepinephrine; [2]): 611 pg/mL
Norepinephrine, Week 24 Mean ± SD (plasma norepinephrine; [2]): 798 ± 459 pg/mL
Norepinephrine, Week 24 Median (plasma norepinephrine; [2]): 729 pg/mL
Plasma norepinephrine, Week 4 Mean (plasma norepinephrine; Hungary): 576 pg/mL
Plasma norepinephrine, Week 4 Median (plasma norepinephrine; Hungary): 525 pg/mL
Plasma norepinephrine, change from baseline to Week 4, Mean ±SEM (plasma norepinephrine; Hungary): -208 pg/mL
Plasma norepinephrine, change from baseline to Week 4, Median (plasma norepinephrine; Hungary): −213* pg/ml
Norepinephrine, Baseline Mean ± SD (plasma norepinephrine; Hungary (n = 33)): 767 ± 270 pg/mL
Norepinephrine, Baseline Median (plasma norepinephrine; Hungary (n = 33)): 792 pg/mL
Norepinephrine, Week 12 Mean ± SD (plasma norepinephrine; Hungary (n = 33)): 638 ± 254 pg/mL
Norepinephrine, Week 12 Median (plasma norepinephrine; Hungary (n = 33)): 690 pg/mL
Norepinephrine, Week 24 Mean ± SD (plasma norepinephrine; Hungary (n = 33)): 711 ± 267 pg/mL
Norepinephrine, Week 24 Median (plasma norepinephrine; Hungary (n = 33)): 736 pg/mL
Plasma norepinephrine, Week 4 Mean (plasma norepinephrine; U.S.): 529 pg/mL
Plasma norepinephrine, Week 4 Median (plasma norepinephrine; U.S.): 473 pg/mL
Plasma norepinephrine, change from baseline to Week 4, Mean ±SEM (plasma norepinephrine; U.S.): -136 pg/mL
Plasma norepinephrine, change from baseline to Week 4, Median (plasma norepinephrine; U.S.): -101 pg/mL
Norepinephrine, Baseline Mean ± SD (plasma norepinephrine; U.S. (n = 127)): 650 ± 362 pg/mL
Norepinephrine, Baseline Median (plasma norepinephrine; U.S. (n = 127)): 598 pg/mL
Norepinephrine, Week 12 Mean ± SD (plasma norepinephrine; U.S. (n = 127)): 529 ± 267 pg/mL
Norepinephrine, Week 12 Median (plasma norepinephrine; U.S. (n = 127)): 466 pg/mL
Norepinephrine, Week 24 Mean ± SD (plasma norepinephrine; U.S. (n = 127)): 585 ± 336 pg/mL
Norepinephrine, Week 24 Median (plasma norepinephrine; U.S. (n = 127)): 498 pg/mL
Degree of reduction in NE by median values (plasma norepinephrine; Week 4, Hungary): 213 pg/mL
Degree of reduction in NE by median values (plasma norepinephrine; Week 4, U.S.): 101 pg/mL
Degree of reduction in NE by median values (plasma norepinephrine; Week 4, rest of Europe): 121 pg/mL
Reduction in NE (plasma norepinephrine; Week 12, Canada): 100 pg/mL
Reduction in NE (plasma norepinephrine; Week 24, Canada): 21 pg/mL
Reduction in NE (plasma norepinephrine; Week 24, Hungary): 193 pg/mL
Reduction in NE (plasma norepinephrine; Week 24, U.S.): 46 pg/mL
Norepinephrine, ΔWeek 12 Mean ± SEM (plasma norepinephrine; Canada (n = 59)): -133 ± 48 pg/mL
Norepinephrine, ΔWeek 12 Median (plasma norepinephrine; Canada (n = 59)): -100 pg/mL
Norepinephrine, ΔWeek 24 Mean ± SEM (plasma norepinephrine; Canada (n = 59)): -38 ± 54 pg/mL
Norepinephrine, ΔWeek 24 Median (plasma norepinephrine; Canada (n = 59)): -21 pg/mL
Norepinephrine, ΔWeek 12 Mean ± SEM (plasma norepinephrine; Entire Cohort (n = 267)): -118 ± 27 pg/mL
Norepinephrine, ΔWeek 12 Median (plasma norepinephrine; Entire Cohort (n = 267)): -100 pg/mL
Norepinephrine, ΔWeek 24 Mean ± SEM (plasma norepinephrine; Entire Cohort (n = 267)): -64 ± 31 pg/mL
Norepinephrine, ΔWeek 24 Median (plasma norepinephrine; Entire Cohort (n = 267)): -47 pg/mL
Norepinephrine, ΔWeek 12 Mean ± SEM (plasma norepinephrine; [2]): -34 ± 51 pg/mL
Norepinephrine, ΔWeek 12 Median (plasma norepinephrine; [2]): -55 pg/mL
Norepinephrine, ΔWeek 24 Mean ± SEM (plasma norepinephrine; [2]): 56 ± 152 pg/mL
Norepinephrine, ΔWeek 24 Median (plasma norepinephrine; [2]): -82 pg/mL
Norepinephrine, ΔWeek 12 Mean ± SEM (plasma norepinephrine; Hungary (n = 33)): -172 ± 63 pg/mL
Norepinephrine, ΔWeek 12 Median (plasma norepinephrine; Hungary (n = 33)): -171 pg/mL
Norepinephrine, ΔWeek 24 Mean ± SEM (plasma norepinephrine; Hungary (n = 33)): -132 ± 296 pg/mL
Norepinephrine, ΔWeek 24 Median (plasma norepinephrine; Hungary (n = 33)): -193 pg/mL
Norepinephrine, ΔWeek 12 Mean ± SEM (plasma norepinephrine; U.S. (n = 127)): -128 ± 49 pg/mL
Norepinephrine, ΔWeek 12 Median (plasma norepinephrine; U.S. (n = 127)): -86 pg/mL
Norepinephrine, ΔWeek 24 Mean ± SEM (plasma norepinephrine; U.S. (n = 127)): -86 ± 40 pg/mL
Norepinephrine, ΔWeek 24 Median (plasma norepinephrine; U.S. (n = 127)): -46 pg/mL
Degree of reduction in NE by median values (plasma norepinephrine; week 4, entire cohort): 101 pg/mL
Reduction in NE (plasma norepinephrine; week 24, entire cohort): 47 pg/mL
